According to BigSolDB 2.1:

CC(C)C(=O)Nc1ccc([N+](=O)[O-])c(C(F)(F)F)c1
solubility (mole fraction)
Conditions	278.15 K	283.15 K	288.15 K	293.15 K	298.15 K	303.15 K	308.15 K	313.15 K	318.15 K	323.15 K
in 1,4-dioxane	–	0.12	0.139	0.16	0.184	0.21	0.239	0.272	0.307	0.338
in acetonitrile	0.0592	0.0749	0.0939	0.115	0.144	0.177	0.217	0.262	0.314	0.375
in ethanol	0.0365	0.0435	0.0522	0.0617	0.0728	0.0858	0.1	0.116	0.136	0.156
in isopropanol	0.0583	0.0664	0.0756	0.0861	0.0979	0.11	0.125	0.14	0.155	0.176
in water	2.41e-07	3.17e-07	4.02e-07	5.23e-07	6.68e-07	8.38e-07	1.07e-06	1.32e-06	1.65e-06	2.06e-06
